Assay results taken from patent publication US7960376B2, “Benzo-fused heterocycles” (priority 2007, dated 2011).
pEC50: −log10 of the molar value.

Columns and labels:
Format in all cases: cell-based
[1] = target: human CB1 receptor (hCB1) (Homo sapiens, UniProt P21554); assay: cAMP assay (LANCE TR-FRET) in CHO-K1 cells expressing hCB1; settings: intracellular cAMP, NKH-477 prestimulated, + agonist, − inverse agonist
[2] = target: T1, rat CB2 receptor (rCB2) (Rattus norvegicus, UniProt Q9QZN9); assay: cell-based; settings: intracellular cAMP, CHO-K1 cells, NKH-477 prestimulated, + agonist, − inverse agonist
T1 sequence (Q9QZN9 1-360): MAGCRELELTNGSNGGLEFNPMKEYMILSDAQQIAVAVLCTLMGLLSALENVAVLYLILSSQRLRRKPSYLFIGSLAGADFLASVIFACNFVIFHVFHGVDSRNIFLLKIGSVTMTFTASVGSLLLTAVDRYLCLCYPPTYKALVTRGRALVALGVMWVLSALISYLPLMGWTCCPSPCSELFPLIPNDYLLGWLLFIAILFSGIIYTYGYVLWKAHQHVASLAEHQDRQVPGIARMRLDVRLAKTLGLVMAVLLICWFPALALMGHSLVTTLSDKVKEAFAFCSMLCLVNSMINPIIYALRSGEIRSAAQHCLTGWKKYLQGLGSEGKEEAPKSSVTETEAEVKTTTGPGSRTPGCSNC

[3] = target: human CB2 receptor (hCB2) (Homo sapiens, UniProt P34972); assay: cell-based; settings: intracellular cAMP, CHO-K1 cells, NKH-477 prestimulated, + agonist, − inverse agonist
Chain of human CB2 receptor (hCB2) (P34972 whole entry): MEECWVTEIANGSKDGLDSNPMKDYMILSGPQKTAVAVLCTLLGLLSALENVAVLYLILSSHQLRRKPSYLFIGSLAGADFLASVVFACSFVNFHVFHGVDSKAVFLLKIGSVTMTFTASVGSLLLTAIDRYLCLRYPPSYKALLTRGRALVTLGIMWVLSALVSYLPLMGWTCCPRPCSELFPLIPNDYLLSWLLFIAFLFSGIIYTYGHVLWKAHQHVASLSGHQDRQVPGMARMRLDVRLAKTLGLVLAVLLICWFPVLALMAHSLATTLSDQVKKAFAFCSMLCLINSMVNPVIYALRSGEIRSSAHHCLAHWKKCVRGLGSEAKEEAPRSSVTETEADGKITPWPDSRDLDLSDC

Chain of human CB1 receptor (hCB1) (P21554 whole entry): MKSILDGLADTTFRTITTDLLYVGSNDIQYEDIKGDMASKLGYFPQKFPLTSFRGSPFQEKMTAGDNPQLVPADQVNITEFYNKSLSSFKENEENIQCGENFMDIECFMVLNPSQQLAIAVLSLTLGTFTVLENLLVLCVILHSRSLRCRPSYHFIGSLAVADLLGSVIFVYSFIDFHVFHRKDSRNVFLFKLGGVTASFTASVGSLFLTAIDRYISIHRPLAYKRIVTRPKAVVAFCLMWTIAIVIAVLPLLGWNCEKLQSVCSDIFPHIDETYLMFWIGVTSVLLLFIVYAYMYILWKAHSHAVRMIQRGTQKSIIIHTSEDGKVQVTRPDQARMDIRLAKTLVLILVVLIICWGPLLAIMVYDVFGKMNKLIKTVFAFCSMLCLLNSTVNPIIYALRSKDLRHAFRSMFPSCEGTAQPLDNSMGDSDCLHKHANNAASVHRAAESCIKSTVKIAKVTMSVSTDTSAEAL

Row | SMILES | hCB1 EC50 range [1] | rCB2 EC50 range [2] | hCB2 EC50 range [3] | pEC50 ([1]; read-out: hCB1 EC50 range) | pEC50 ([2]; read-out: rCB2 EC50 range) | pEC50 ([3]; read-out: hCB2 EC50 range)
1 | CC(C)CNC(=O)c1ccc2c(c1)N(C(=O)c1ccccc1)CCS2 [Example 2, 4-benzoyl-N-isobutyl-3,4-dihydro-2H-benzo[b][1,4]thiazine-6-carboxamide] | −E | −C | −E | – | – | –
2 | COc1ccc(C(=O)N2CCSc3ccc(C(=O)NCC(C)C)cc32)cc1 [Example 5, N-isobutyl-4-(4-meth-oxybenzoyl)-3,4-di-hydro-2H-benzo[b] [1,4]thiazine-6-carboxamide] | −E | −E | −E | – | – | –
3 | Cc1ccc(C(=O)N2CCSc3ccc(C(=O)NC4CCCC4)cc32)cc1 [Example 13, N-cyclopentyl-4-(4-methylbenzoyl)-3,4-dihydro-2H-benzo[b] [1,4]thiazine-6-carboxamide] | – | – | – | < 5.00 | < 5.00 | < 5.00
4 | O=C(NC1CCCC1)c1ccc2c(c1)N(C(=O)c1ccccc1)CCS2 [Example 14, 4-benzoyl-N-cyclopentyl-3,4-dihydro-2H-benzo[b][1,4]thiazine-6-carboxamide] | −E | −D | −E | – | – | –
5 | O=C(NC12CC3CC(CC(C3)C1)C2)c1ccc2c(c1)N(C(=O)c1ccccc1)CCS2 [Example 21, 4-benzoyl-N-(1-adamantyl)-3,4-dihydro-2H-benzo[b][1,4]thiazine-6-carboxamide] | −E | −D | −E | – | – | –
6 | O=C(NC12CC3CC(CC(C3)C1)C2)c1ccc2c(c1)N(C(=O)c1ccc(F)cc1)CCS2 [Example 22] | −E | −D | −E | – | – | –
7 | Cc1ccc(C(=O)N2CCSc3ccc(C(=O)NC45CC6CC(CC(C6)C4)C5)cc32)cc1 [Example 23, N-(1-adamantyl)-4-(4-methylbenzoyl)-3,4-dihydro-2H-benzo[b][1,4]thiazine-6-carboxamide] | −E | −D | −E | – | – | –
8 | O=C(NC12CC3CC(CC(C3)C1)C2)c1ccc2c(c1)N(C(=O)c1ccc(Cl)cc1)CCS2 [Example 24, N-(1-adamantyl)-4-(4-chlorobenzoyl)-3,4-dihydro-2H-benzo[b][1,4]thiazine-6-carboxamide] | −E | −D | −E | – | – | –
9 | COc1ccc(C(=O)N2CCSc3ccc(C(=O)NC45CC6CC(CC(C6)C4)C5)cc32)cc1 [Example 25, N-(1-adamantyl)-4-(4-methoxybenzoyl)-3,4-dihydro-2H-benzo[b][1,4]thiazine-6-carboxamide] | −E | −D | −E | – | – | –
10 | CC(C)C(=O)N1CCSc2ccc(C(=O)NC34CC5CC(CC(C5)C3)C4)cc21 [Example 40, N-(1-adamantyl)-4-isobutyryl-3,4-dihydro-2H-benzo[b][1,4]thiazine-6-carboxamide] | −E | −D | +D | – | – | –
11 | O=C(c1ccc2c(c1)N(S(=O)(=O)c1ccc(F)cc1)CCS2)N1CCOCC1 [Example 42, (4-(4-fluorophenylsulfonyl)-3,4-dihydro-2H-benzo[b][1,4]thiazin-6-yl)(morpholino)methanone] | +E | +C | +D | – | – | –
12 | CC(C)CNC(=O)c1ccc2c(c1)N(S(=O)(=O)c1ccc(F)cc1)CCS2 [Example 43, 4-(4-fluorophenylsulfonyl)-N-isobutyl-3,4-dihydro-2H-benzo[b][1,4]thiazine-6-carboxamide] | +D | +A | +B | – | – | –
13 | CC(C)(C)NC(=O)c1ccc2c(c1)N(S(=O)(=O)c1ccc(F)cc1)CCS2 [Example 47, N-tert-butyl-4-(4-fluorophenylsulfonyl)-3,4-dihydro-2H-benzo[b][1,4]thiazine-6-carboxamide] | +E | +A | +B | – | – | –
14 | COCCCNC(=O)c1ccc2c(c1)N(S(=O)(=O)c1ccc(F)cc1)CCS2 [Example 49, 4-(4-fluorophenylsulfonyl)-N-(3-methoxypropyl)-3,4-dihydro-2H-benzo[b][1,4]thiazine-6-carboxamide] | +E | +A | +C | – | – | –
15 | CC(C)CNC(=O)c1ccc2c(c1)N(S(=O)(=O)c1ccc(Cl)cc1)CCO2 [Example 58, 4-(4-chlorophenylsulfonyl)-N-isobutyl-3,4-dihydro-2H-benzo[b][1,4]oxazine-6-carboxamide] | +D | +A | +B | – | – | –
16 | CC(C)CNC(=O)c1ccc2c(c1)N(S(=O)(=O)c1ccc(F)cc1)CCO2 [Example 60, 4-(4-fluorophenylsulfonyl)-N-isobutyl-3,4-dihydro-2H-benzo[b][1,4] oxazine-6-carboxamide] | +D | +B | +B | – | – | –
17 | O=C(NC1CCCC1)c1ccc2c(c1)N(S(=O)(=O)c1ccccc1)CCO2 [Example 61, N-cyclopentyl-4-(phenylsulfonyl)-3,4-dihydro-2H-benzo[b][1,4]oxazine-6-carboxamide] | +E | +C | +C | – | – | –
18 | O=C(NC1CCCC1)c1ccc2c(c1)N(S(=O)(=O)c1ccc(F)cc1)CCO2 [Example 62, N-cyclopentyl-4-(4-fluorophenylsulfonyl)-3,4-dihydro-2H-benzo[b][1,4]oxazine-6-carboxamide] | +D | +A | +B | – | – | –
19 | O=C(NC1CCCC1)c1ccc2c(c1)N(S(=O)(=O)c1ccc(Cl)cc1)CCO2 [Example 63, 4-(4-chlorophenylsulfonyl)-N-cyclopentyl-3,4-dihydro-2H-benzo[b][1,4]oxazine-6-carboxamide] | +D | +A | +B | – | – | –
20 | O=C(c1ccc2c(c1)N(S(=O)(=O)c1ccc(F)cc1)CCS2)N1CCCC1 [Example 71] | +E | +C | +C | – | – | –
21 | CCN(CC)C(=O)c1ccc2c(c1)N(S(=O)(=O)c1ccc(C(F)(F)F)cc1)CCS2 [Example 73, N,N-diethyl-4-(4-(trifluoromethyl)phenylsulfonyl)-3,4-dihydro-2H-benzo[b][1,4]thiazine-6-carboxamide] | +E | +C | +C | – | – | –
22 | O=C(c1ccc2c(c1)N(S(=O)(=O)c1ccc(F)cc1)CCS2)N1CCCCC1 [Example 77] | +E | +C | +C | – | – | –
23 | CC(C)(C)c1noc(-c2ccc3c(c2)N(S(=O)(=O)c2ccc(C(F)(F)F)cc2)CCS3)n1 [Example 82, 3-tert-butyl-5-(4-(4-(trifluoromethyl)phenylsulfonyl)-3,4-dihydro-2H-benzo[b][1,4]thiazin-6-yl)-1,2,4-oxadiazole] | +D | +B | +B | – | – | –
24 | O=S(=O)(c1ccc(F)cc1)N1CCSc2ccc(-c3nc(-c4ccccn4)no3)cc21 [Example 83, 5-(4-(4-fluorophenylsulfonyl)-3,4-dihydro-2H-benzo[b][1,4]thiazin-6-yl)-3-(pyridin-2-yl)-1,2,4-oxadiazole] | +D | +B | +C | – | – | –
25 | CC(C)(C)c1noc(-c2ccc3c(c2)N(S(=O)(=O)c2ccccc2)CCS3)n1 [Example 84] | +E | +A | +C | – | – | –
26 | C[C@@H](NC(=O)c1ccc2c(c1)N(S(=O)(=O)c1ccccc1)CCC(C)(C)S2)C(C)(C)C [Example 97, (R)-N-(3,3-dimethyl-butan-2-yl)-2,2-dimethyl-5-(phenyl-sulfonyl)-2,3,4,5-tetrahydrobenzo[b][1,4] thiazepine-7-carboxamide] | −D | – | +D | – | – | –
